Tests used:
[1] = target: T1, JAK3 kinase domain (JH1) (Homo sapiens, UniProt P52333); assay: HTRF-based selectivity assay, JAK3 catalytic domain; assay type: biochemical; details: 2.12 μM ATP
T1 construct: recombinant purified His or GST-tagged catalytic domain for each enzyme; purchased Carna biosciences 08-046
Protocol: (§1) Example B-2: HTRF-Based Selectivity Assay
(§2) The ability of compounds to inhibit the activity of JAK1, JAK2, JAK3 and TYK2 is measured using a recombinant purified His or GST-tagged catalytic domain for each enzyme (JAK1, JAK2 and TYK2 are generated in-house; JAK3 was purchased from Carna biosciences, Cat #08-046) in an HTRF format biochemical assay. The reactions employs a commercial peptide substrate from Cisbio (Cat #62TK0PEC). The basic assay protocol is as follows: first, 2.5 μL of diluted compounds (4×) in DMSO are dispensed into a 384-well Optiplate. Next, 2.5 μL of enzyme (final concentrations for enzymes are: TYK2—700 ng/mL, JAK1—80.6 ng/mL, JAK2—2.1 ng/mL and JAK3—171.8 ng/mL) is added and incubated at RT for 5-20 min. Finally, 5 μl of mixture of 2×ATP [Final concentration 20 μM for TYK2, 21.43 μM for JAK1, 14.7 μM for JAK2 and 2.12 μM for JAK3]+2× Substrate [Final concentration 217 nM for TYK2, 454.7 nM for JAK1, 200 nM for JAK2 and 257.4 nM for JAK3] is added to 384 well Optiplate. Composition of Kinase assay buffer used in the assay is as follows: HEPES 50 mM, EGTA 1 mM, MgCl2 10 mM, DTT 2 mM, Tween-20 0.01% and water. Then the plates are shaken and then incubated at 26.5° C. for 60 min.

[2] = target: T2, TYK2 kinase domain (JH1) (Homo sapiens, UniProt P29597); assay: HTRF-based selectivity assay, TYK2 catalytic domain; assay type: biochemical; details: 20 μM ATP
T2 construct: recombinant purified His or GST-tagged catalytic domain for each enzyme; made in house
T2 sequence (P29597 897-1176 limits assumed): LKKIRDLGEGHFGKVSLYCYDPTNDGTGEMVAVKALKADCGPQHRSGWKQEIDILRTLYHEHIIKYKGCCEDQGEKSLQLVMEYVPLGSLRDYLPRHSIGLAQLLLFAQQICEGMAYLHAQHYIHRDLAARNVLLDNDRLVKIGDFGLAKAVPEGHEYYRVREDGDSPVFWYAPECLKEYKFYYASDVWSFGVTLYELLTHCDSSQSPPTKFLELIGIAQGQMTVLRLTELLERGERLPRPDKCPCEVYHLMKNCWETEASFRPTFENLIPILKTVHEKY
Protocol: as §1, §2

[3] = system: TYK2 pseudokinase (JH2); IL-23-stimulated HEK-Blue IL-23 cells; assay: HEK-Blue IL-23 reporter assay (STAT3-inducible SEAP) for profiling TYK2 pseudokinase (JH2) inhibition; assay type: cell-based; details: 10 ng/mL human recombinant IL-23, SEAP readout, read-out: IL23 (TYK2 inhibitory activity, IC50)
Method in brief: (§3)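 Reporter cells were seeded in DMEM/10% heat-inactivated FBS and cultured 20-22 h at 37 °C. Compounds, serially diluted, were applied for 60 min before human recombinant IL-23 (10 ng/mL, 22-24 h) or IFNα (1 ng/mL, 16-18 h) was added. Secreted alkaline phosphatase was then quantified with QUANTI-Blue.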

[4] = system: IFNγ-stimulated HEK-Blue IFNγ reporter cells; assay: HEK-Blue IFNγ reporter assay (STAT1-inducible SEAP) for determining selectivity; assay type: cell-based; details: 50 ng/mL human recombinant IFNγ, 24 hours, read-out: IFN-γ SEAP selectivity assay IC50
Method in brief: (§4)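 Cells were plated for 20-22 h, then pretreated with serially diluted compound for 60 min. They were stimulated for 24 h with 4 ng/mL human recombinant IL-2 or 50 ng/mL human recombinant IFNγ, and SEAP induction was read with QUANTI-Blue.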

[5] = system: TYK2 pseudokinase (JH2); IFNα-stimulated HEK-Blue IFNα/β cells; assay: HEK-Blue IFNα/β reporter assay (STAT1-inducible SEAP) for profiling TYK2 pseudokinase (JH2) inhibition; assay type: cell-based; details: 1 ng/mL human recombinant IFNα, SEAP readout, read-out: IFNα (TYK2 inhibitory activity, IC50)
Method in brief: as §3

[6] = target: T3, JAK2 kinase domain (JH1) (Homo sapiens, UniProt O60674); assay: HTRF-based selectivity assay, JAK2 catalytic domain; assay type: biochemical; details: 14.7 μM ATP
T3 construct: recombinant purified His or GST-tagged catalytic domain for each enzyme; made in house
Protocol: as §1, §2

[7] = system: IL-2-stimulated HEK-Blue IL-2 reporter cells; assay: HEK-Blue IL-2 reporter assay (STAT5-inducible SEAP) for determining selectivity; assay type: cell-based; details: 4 ng/mL human recombinant IL-2, 24 hours
Method in brief: as §4

[8] = target: T4, JAK1 kinase domain (JH1) (Homo sapiens, UniProt P23458); assay: HTRF-based selectivity assay, JAK1 catalytic domain; assay type: biochemical; details: 21.43 μM ATP, read-out: JAK-JHI (IC50)
T4 construct: recombinant purified His or GST-tagged catalytic domain for each enzyme; made in house
Protocol: as §1, §2

T1 sequence (P52333 822-1111 limits assumed): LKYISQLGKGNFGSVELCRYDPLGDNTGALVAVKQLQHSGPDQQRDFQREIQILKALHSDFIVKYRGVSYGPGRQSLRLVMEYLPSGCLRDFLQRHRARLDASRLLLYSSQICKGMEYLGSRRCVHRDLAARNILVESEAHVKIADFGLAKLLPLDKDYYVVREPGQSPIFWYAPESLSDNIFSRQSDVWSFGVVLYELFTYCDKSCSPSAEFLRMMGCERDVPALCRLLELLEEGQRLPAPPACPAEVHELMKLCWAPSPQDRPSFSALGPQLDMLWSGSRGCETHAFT
T4 sequence (P23458 875-1153 limits assumed): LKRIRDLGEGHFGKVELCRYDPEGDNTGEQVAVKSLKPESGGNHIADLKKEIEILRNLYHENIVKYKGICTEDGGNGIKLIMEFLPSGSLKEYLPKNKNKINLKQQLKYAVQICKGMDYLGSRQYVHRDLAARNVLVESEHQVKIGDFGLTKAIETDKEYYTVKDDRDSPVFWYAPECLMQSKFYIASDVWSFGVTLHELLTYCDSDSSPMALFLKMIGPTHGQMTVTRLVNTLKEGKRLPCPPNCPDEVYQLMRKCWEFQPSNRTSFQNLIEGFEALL
T3 sequence (O60674 849-1124 limits assumed): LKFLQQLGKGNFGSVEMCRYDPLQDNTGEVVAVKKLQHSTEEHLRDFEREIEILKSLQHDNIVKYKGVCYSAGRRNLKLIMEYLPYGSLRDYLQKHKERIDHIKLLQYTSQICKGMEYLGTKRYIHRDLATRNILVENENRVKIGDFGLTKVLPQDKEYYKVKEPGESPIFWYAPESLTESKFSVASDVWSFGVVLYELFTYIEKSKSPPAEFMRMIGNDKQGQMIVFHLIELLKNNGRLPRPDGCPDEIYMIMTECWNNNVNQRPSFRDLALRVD

CNC(=O)c1nnc(NC(=O)C2CC2)cc1Nc1cccc2c1OCc1cn(C)nc1-2 [Compound 2, 6-(cyclopropanecarboxamido)-N-methyl-4-((2-methyl-2,4-dihydrochromeno [4,3-c]pyrazol-6-yl)amino)pyridazine-3-carboxamide]
IC50 [1]: > 1000 nM
IC50 [2]: > 1000 nM
IC50 [3]: 30 to 300 nM
IC50 [4]: 300 to 1000 nM
IC50 [5]: 300 to 1000 nM
IC50 [6]: > 1000 nM
IC50 [7]: > 1000 nM
IC50 [8]: > 1000 nM

[2H]C([2H])([2H])NC(=O)c1nnc(Nc2ccc(F)cn2)cc1Nc1cccc2c1OCc1cn(C)nc1-2 [Compound 5, 6-((5-fluoropyridin-2-yl)amino)-N-(methyl-d3)-4-((2-methyl-2,4-dihydrochromeno[4,3-c]pyrazol-6-yl)amino)pyridazine-3-carboxamide]
IC50 [1]: > 1000 nM
IC50 [2]: > 1000 nM
IC50 [3]: < 30 nM
IC50 [4]: > 1000 nM
IC50 [5]: 30 to 300 nM
IC50 [6]: > 1000 nM
IC50 [7]: > 1000 nM
IC50 [8]: > 1000 nM

[2H]C([2H])([2H])NC(=O)c1cnc(NC(=O)C2CC2)cc1Nc1cccc2c1OCc1cn(C)nc1-2 [Compound 6, 6-(cyclopropanecarboxamido)-N-(methyl-d3)-4-((2-methyl-2,4-dihydrochromeno[4,3-c]pyrazol-6-yl)amino)nicotinamide]
IC50 [1]: > 1000 nM
IC50 [2]: > 1000 nM
IC50 [3]: 30 to 300 nM
IC50 [4]: > 1000 nM
IC50 [5]: 30 to 300 nM
IC50 [6]: > 1000 nM
IC50 [7]: > 1000 nM
IC50 [8]: > 1000 nM

[2H]C([2H])([2H])NC(=O)c1cnc(Nc2ccc(F)cn2)cc1Nc1cccc2c1OCc1cn(C)nc1-2 [Compound 7, 6-((5-fluoropyridin-2-yl)amino)-N-(methyl-d3)-4-((2-methyl-2,4-dihydrochromeno[4,3-c]pyrazol-6-yl)amino)nicotinamide]
IC50 [1]: > 1000 nM
IC50 [2]: > 1000 nM
IC50 [3]: 30 to 300 nM
IC50 [4]: 300 to 1000 nM
IC50 [5]: 300 to 1000 nM
IC50 [6]: > 1000 nM
IC50 [7]: > 1000 nM
IC50 [8]: > 1000 nM

Cn1cc2c(n1)-c1cccc(Nc3cc(Nc4ccc(F)cn4)nnc3C(N)=O)c1OC2 [Compound 8, 6-((5-fluoropyridin-2-yl)amino)-4-((2-methyl-2,4-dihydrochromeno[4,3-c]pyrazol-6-yl)amino)pyridazine-3-carboxamide]
IC50 [1]: > 1000 nM
IC50 [2]: > 1000 nM
IC50 [3]: < 30 nM
IC50 [4]: < 30 nM
IC50 [5]: 30 to 300 nM
IC50 [6]: 300 to 1000 nM
IC50 [7]: 300 to 1000 nM
IC50 [8]: > 1000 nM

[2H]C([2H])([2H])NC(=O)c1cnc(Nc2cc(C)nc(C)n2)cc1Nc1cccc2c1OCc1cn(C)nc1-2 [Compound 9, 6-((2,6-dimethylpyrimidin-4-yl)amino)-N-(methyl-d3)-4-((2-methyl-2,4-dihydrochromeno[4,3-c]pyrazol-6-yl)amino)nicotinamide]
IC50 [1]: > 1000 nM
IC50 [2]: > 1000 nM
IC50 [3]: < 30 nM
IC50 [4]: 300 to 1000 nM
IC50 [5]: 30 to 300 nM
IC50 [6]: > 1000 nM
IC50 [7]: > 1000 nM
IC50 [8]: > 1000 nM

CNC(=O)c1nnc(Nc2ccc(F)cn2)cc1Nc1cccc2c1N(C)Cc1cn(C)nc1-2 [Compound 12, (4-((2,5-dimethyl-4,5-dihydro-2H-pyrazolo[4,3-c]quinolin-6-yl)amino)-6-((5-fluoropyridin-2-yl)amino)-N-methylpyridazine-3-carboxamide)]
IC50 [1]: > 1000 nM
IC50 [2]: > 1000 nM
IC50 [3]: < 30 nM
IC50 [4]: 30 to 300 nM
IC50 [5]: < 30 nM
IC50 [6]: > 1000 nM
IC50 [7]: > 1000 nM
IC50 [8]: > 1000 nM

[2H]C([2H])([2H])NC(=O)c1cnc(Nc2ccc(F)cn2)cc1Nc1cccc2c1N(C)Cc1cn(C)nc1-2 [Compound 13, 4-((2,5-dimethyl-4,5-dihydro-2H-pyrazolo[4,3-c]quinolin-6-yl)amino)-6-((5-fluoropyridin-2-yl)amino)-N-(methyl-d3)nicotinamide]
IC50 [1]: > 1000 nM
IC50 [2]: > 1000 nM
IC50 [3]: < 30 nM
IC50 [4]: 300 to 1000 nM
IC50 [5]: < 30 nM
IC50 [6]: > 1000 nM
IC50 [7]: > 1000 nM
IC50 [8]: > 1000 nM

[2H]C([2H])([2H])NC(=O)c1cnc(NC(=O)C2CC2)cc1Nc1cccc2c1N(C)Cc1cn(C)nc1-2 [Compound 14, 6-(cyclopropanecarboxamido)-4-((2,5-dimethyl-4,5-dihydro-2H-pyrazolo[4,3-c]quinolin-6-yl)amino)-N-(methyl-d3)nicotinamide]
IC50 [1]: > 1000 nM
IC50 [2]: > 1000 nM
IC50 [3]: < 30 nM
IC50 [4]: 300 to 1000 nM
IC50 [5]: < 30 nM
IC50 [6]: > 1000 nM
IC50 [7]: > 1000 nM
IC50 [8]: > 1000 nM

[2H]C([2H])([2H])NC(=O)c1nnc(NC(=O)C2CC2)cc1Nc1cccc2c1N(C)Cc1cn(C)nc1-2 [Compound 15, 6-(cyclopropanecarboxamido)-4-((2,5-dimethyl-4,5-dihydro-2H-pyrazolo[4,3-c]quinolin-6-yl)amino)-N-(methyl-d3)pyridazine-3-carboxamide]
IC50 [1]: > 1000 nM
IC50 [2]: > 1000 nM
IC50 [3]: < 30 nM
IC50 [4]: > 1000 nM
IC50 [5]: < 30 nM
IC50 [6]: > 1000 nM
IC50 [7]: > 1000 nM
IC50 [8]: > 1000 nM

[2H]C([2H])([2H])NC(=O)c1cnc(Nc2cc(C)nc(C)n2)cc1Nc1cccc2c1N(C)Cc1cn(C)nc1-2 [Compound 16, 4-((2,5-dimethyl-4,5-dihydro-2H-pyrazolo[4,3-c]quinolin-6-yl)amino)-6-((2,6-dimethylpyrimidin-4-yl)amino)-N-(methyl-d3)nicotinamide]
IC50 [1]: > 1000 nM
IC50 [2]: > 1000 nM
IC50 [3]: < 30 nM
IC50 [4]: 30 to 300 nM
IC50 [5]: < 30 nM
IC50 [6]: > 1000 nM
IC50 [7]: 300 to 1000 nM
IC50 [8]: > 1000 nM

CN1Cc2cn(C)nc2-c2cccc(Nc3cc(NC(=O)C4CC4)ncc3C(N)=O)c21 [Compound 17, 6-(cyclopropanecarboxamido)-4-((2,5-dimethyl-4,5-dihydro-2H-pyrazolo[4,3-c]quinolin-6-yl)amino)nicotinamide]
IC50 [1]: < 30 nM
IC50 [2]: 30 to 300 nM
IC50 [3]: < 30 nM
IC50 [4]: < 30 nM
IC50 [5]: < 30 nM
IC50 [6]: < 30 nM
IC50 [7]: < 30 nM
IC50 [8]: < 30 nM

[2H]C([2H])([2H])NC(=O)c1cnc(NC(=O)C2CC2)cc1Nc1cccc2c1N(C)Cc1cn(C([2H])([2H])[2H])nc1-2 [Compound 19, 6-(cyclopropanecarboxamido)-N-(methyl-d3)-4-((5-methyl-2-(methyl-d3)-4,5-dihydro-2H-pyrazolo[4,3-c]quinolin-6-yl)amino)nicotinamide]
IC50 [1]: > 1000 nM
IC50 [2]: > 1000 nM
IC50 [3]: < 30 nM
IC50 [4]: > 1000 nM
IC50 [5]: < 30 nM
IC50 [6]: > 1000 nM
IC50 [7]: > 1000 nM
IC50 [8]: > 1000 nM

[2H]C([2H])([2H])NC(=O)c1nnc(NC(=O)C2CC2)cc1Nc1cccc2c1N(C)Cc1cn(C([2H])([2H])[2H])nc1-2 [Compound 20, 6-(cyclopropanecarboxamido)-N-(methyl-d3)-4-((5-methyl-2-(methyl-d3)-4,5-dihydro-2H-pyrazolo[4,3-c]quinolin-6-yl)amino)pyridazine-3-carboxamide]
IC50 [1]: > 1000 nM
IC50 [2]: > 1000 nM
IC50 [3]: < 30 nM
IC50 [4]: 30 to 300 nM
IC50 [5]: < 30 nM
IC50 [6]: > 1000 nM
IC50 [7]: 300 to 1000 nM
IC50 [8]: > 1000 nM

— patent US12122785B2, “Substituted pyridines, pyridazines, pyrimidines, and 1,2,4-triazines as TYK2 inhibitors” (Sudo Biosciences Limited, priority 2021, dated 2024)
